Source: PubChem BioAssay (NCI)
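Following 48 hours of exposure in 96-well plates, responses at five concentrations were used to interpolate endpoints linearly. GI50 marks 50% less growth. Definition used: TGI = concentration required for complete inhibition of growth.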

Assays:
Experiment in all cases: inhibition of tumour cell growth, NCI panel, 48 h; in the data active = GI50 below about 0.43 µM; inactive = the rest
OVCAR-5 ovarian = test system: OVCAR-5 ovarian
HT29 colon = test system: HT29 colon
MCF7 breast = test system: MCF7 breast
K-562 leukemia = test system: K-562 leukemia
SF-295 CNS = test system: SF-295 CNS
OVCAR-3 ovarian = test system: OVCAR-3 ovarian
UO-31 renal = test system: UO-31 renal
HCC-2998 colon = test system: HCC-2998 colon
IGROV1 ovarian = test system: IGROV1 ovarian
NCI-H460 lung = test system: NCI-H460 lung
M14 melanoma = test system: M14 melanoma
HOP-92 NSCLC = test system: HOP-92 NSCLC
NCI-H522 lung = test system: NCI-H522 lung
NCI-H226 lung = test system: NCI-H226 lung
SW-620 colon = test system: SW-620 colon
BT-549 breast = test system: BT-549 breast
SNB-75 CNS = test system: SNB-75 CNS
SF-268 CNS = test system: SF-268 CNS
MDA-MB-231 breast = test system: MDA-MB-231 breast
TK-10 renal = test system: TK-10 renal
HL-60(TB) leukemia = test system: HL-60(TB) leukemia
CCRF-CEM leukemia = test system: CCRF-CEM leukemia
MDA-MB-435 = test system: MDA-MB-435
HOP-62 NSCLC = test system: HOP-62 NSCLC
NCI/ADR-RES ovarian = test system: NCI/ADR-RES ovarian
SF-539 CNS = test system: SF-539 CNS
SNB-19 CNS = test system: SNB-19 CNS
LOX IMVI melanoma = test system: LOX IMVI melanoma
DU-145 prostate = test system: DU-145 prostate
RPMI-8226 leukemia = test system: RPMI-8226 leukemia
ACHN renal = test system: ACHN renal
HCT-116 colon = test system: HCT-116 colon
HS 578T breast = test system: HS 578T breast
OVCAR-8 ovarian = test system: OVCAR-8 ovarian
PC-3 prostate = test system: PC-3 prostate
SK-MEL-5 melanoma = test system: SK-MEL-5 melanoma
U251 CNS = test system: U251 CNS
RXF 393 renal = test system: RXF 393 renal
HCT-15 colon = test system: HCT-15 colon
UACC-62 melanoma = test system: UACC-62 melanoma
COLO 205 colon = test system: COLO 205 colon
MALME-3M melanoma = test system: MALME-3M melanoma
UACC-257 melanoma = test system: UACC-257 melanoma
SN12C renal = test system: SN12C renal
SK-MEL-2 melanoma = test system: SK-MEL-2 melanoma
SR leukemia = test system: SR leukemia
T-47D breast = test system: T-47D breast
CAKI-1 renal = test system: CAKI-1 renal
KM12 colon = test system: KM12 colon
EKVX NSCLC = test system: EKVX NSCLC
NCI-H23 lung = test system: NCI-H23 lung
OVCAR-4 ovarian = test system: OVCAR-4 ovarian
786-0 renal = test system: 786-0 renal
SK-OV-3 ovarian = test system: SK-OV-3 ovarian
A549 NSCLC = test system: A549 NSCLC
SK-MEL-28 melanoma = test system: SK-MEL-28 melanoma
MOLT-4 leukemia = test system: MOLT-4 leukemia
A498 renal = test system: A498 renal

CN(C)C(=O)O[C@@H]1CN[C@@H](C#Cc2cc3ncnc(Nc4ccc(OCc5cccc(F)c5)c(Cl)c4)c3s2)C1
inactive: GI50 (OVCAR-5 ovarian) > 25 µM | GI50 (HT29 colon) > 25 µM | GI50 (MCF7 breast) > 25 µM | GI50 (K-562 leukemia) > 25 µM | GI50 (SF-295 CNS) > 25 µM | GI50 (OVCAR-3 ovarian) 7.51 µM | GI50 (UO-31 renal) 5.22 µM | GI50 (HCC-2998 colon) 14.1 µM | GI50 (IGROV1 ovarian) 13.1 µM | GI50 (NCI-H460 lung) 8.33 µM | GI50 (M14 melanoma) > 25 µM | GI50 (HOP-92 NSCLC) 6.5 µM | GI50 (NCI-H522 lung) 2.14 µM | GI50 (NCI-H226 lung) 9.22 µM | GI50 (SW-620 colon) > 25 µM | GI50 (BT-549 breast) 7.93 µM | GI50 (SNB-75 CNS) > 19.4 µM | GI50 (SF-268 CNS) 14.5 µM | GI50 (MDA-MB-231 breast) 6.6 µM | GI50 (TK-10 renal) 4.7 µM | GI50 (HL-60(TB) leukemia) 9.86 µM | GI50 (CCRF-CEM leukemia) 2.78 µM | GI50 (MDA-MB-435) > 25 µM | GI50 (HOP-62 NSCLC) > 25 µM | GI50 (NCI/ADR-RES ovarian) > 25 µM | GI50 (SF-539 CNS) 8.58 µM | GI50 (SNB-19 CNS) > 25 µM | GI50 (LOX IMVI melanoma) > 25 µM | GI50 (DU-145 prostate) > 25 µM | GI50 (RPMI-8226 leukemia) 7.18 µM | GI50 (ACHN renal) 18.9 µM | GI50 (HCT-116 colon) > 25 µM | GI50 (HS 578T breast) > 25 µM | GI50 (OVCAR-8 ovarian) 18.7 µM | GI50 (PC-3 prostate) 8.53 µM | GI50 (SK-MEL-5 melanoma) > 25 µM | GI50 (U251 CNS) > 21.2 µM | GI50 (RXF 393 renal) > 20.4 µM | GI50 (HCT-15 colon) > 25 µM | GI50 (UACC-62 melanoma) > 25 µM | GI50 (COLO 205 colon) > 25 µM | GI50 (MALME-3M melanoma) 9.41 µM | GI50 (UACC-257 melanoma) > 25 µM | GI50 (SN12C renal) 8.01 µM | GI50 (SK-MEL-2 melanoma) > 25 µM | GI50 (SR leukemia) 20.1 µM | GI50 (T-47D breast) 11.2 µM | GI50 (CAKI-1 renal) 5.87 µM | GI50 (KM12 colon) 9.85 µM | GI50 (EKVX NSCLC) 5.14 µM | GI50 (NCI-H23 lung) > 25 µM | GI50 (OVCAR-4 ovarian) > 25 µM | GI50 (786-0 renal) 9.48 µM | GI50 (A549 NSCLC) 7.82 µM | GI50 (SK-MEL-28 melanoma) > 25 µM | GI50 (MOLT-4 leukemia) 6.73 µM | GI50 (A498 renal) 5.65 µM
> 21.7 µM: TGI (786-0 renal)
> 23.2 µM: TGI (EKVX NSCLC)
active: GI50 (SK-OV-3 ovarian) 0.406 µM
> 21.8 µM: TGI (MOLT-4 leukemia)
> 25 µM: TGI (OVCAR-5 ovarian) | TGI (HT29 colon) | TGI (MCF7 breast) | TGI (K-562 leukemia) | TGI (SF-295 CNS) | TGI (OVCAR-3 ovarian) | TGI (HCC-2998 colon) | TGI (IGROV1 ovarian) | TGI (NCI-H460 lung) | TGI (M14 melanoma) | TGI (HOP-92 NSCLC) | TGI (SW-620 colon) | TGI (SNB-75 CNS) | TGI (SF-268 CNS) | TGI (TK-10 renal) | TGI (CCRF-CEM leukemia) | TGI (MDA-MB-435) | TGI (HOP-62 NSCLC) | TGI (NCI/ADR-RES ovarian) | TGI (SF-539 CNS) | TGI (SNB-19 CNS) | TGI (LOX IMVI melanoma) | TGI (DU-145 prostate) | TGI (RPMI-8226 leukemia) | TGI (ACHN renal) | TGI (HCT-116 colon) | TGI (HS 578T breast) | TGI (OVCAR-8 ovarian) | TGI (PC-3 prostate) | TGI (SK-MEL-5 melanoma) | TGI (U251 CNS) | TGI (RXF 393 renal) | TGI (HCT-15 colon) | TGI (UACC-62 melanoma) | TGI (COLO 205 colon) | TGI (MALME-3M melanoma) | TGI (UACC-257 melanoma) | TGI (SN12C renal) | TGI (SK-MEL-2 melanoma) | TGI (SR leukemia) | TGI (T-47D breast) | TGI (CAKI-1 renal) | TGI (KM12 colon) | TGI (NCI-H23 lung) | TGI (OVCAR-4 ovarian) | TGI (SK-OV-3 ovarian) | TGI (A549 NSCLC) | TGI (SK-MEL-28 melanoma)
> 20 µM: TGI (MDA-MB-231 breast)
> 20.9 µM: TGI (UO-31 renal)
> 10.5 µM: TGI (NCI-H522 lung)
> 18.4 µM: TGI (NCI-H226 lung)
> 21.4 µM: TGI (BT-549 breast)
> 19.7 µM: TGI (A498 renal)
> 22 µM: TGI (HL-60(TB) leukemia)
